Assay results published in ChEMBL document CHEMBL4431357, “Discovery of a novel class of highly potent inhibitors of the p53-MDM2 interaction by structure-based design starting from a conformational argument” (Bioorg Med Chem Lett, 2016).

Biological target: Tumour suppressor p53/oncoprotein Mdm2 (Homo sapiens, UniProt Q00987)
Experiment: Inhibition of C-terminal biotin-tagged streptavidin labelled human MDM2 ( 2 to 188 residues)/Cy5-labelled p53 (18 to 26 residues)(unknown origin) interaction after 15 mins by TR-FRET assay
Type: protein assay

Tumour suppressor p53/oncoprotein Mdm2, sequence (P04637 whole entry, the tested form may be a part): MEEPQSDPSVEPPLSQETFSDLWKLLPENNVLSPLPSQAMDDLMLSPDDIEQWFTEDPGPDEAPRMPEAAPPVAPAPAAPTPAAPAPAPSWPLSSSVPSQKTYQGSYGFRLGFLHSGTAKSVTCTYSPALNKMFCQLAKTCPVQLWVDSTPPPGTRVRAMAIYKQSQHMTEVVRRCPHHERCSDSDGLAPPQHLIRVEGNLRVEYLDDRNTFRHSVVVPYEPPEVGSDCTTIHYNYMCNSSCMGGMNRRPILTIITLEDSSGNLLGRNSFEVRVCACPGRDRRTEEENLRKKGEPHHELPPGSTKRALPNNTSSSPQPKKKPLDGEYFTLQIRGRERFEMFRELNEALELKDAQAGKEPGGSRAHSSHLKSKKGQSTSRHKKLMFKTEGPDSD
Tumour suppressor p53/oncoprotein Mdm2, sequence (Q00987 whole entry, the tested form may be a part): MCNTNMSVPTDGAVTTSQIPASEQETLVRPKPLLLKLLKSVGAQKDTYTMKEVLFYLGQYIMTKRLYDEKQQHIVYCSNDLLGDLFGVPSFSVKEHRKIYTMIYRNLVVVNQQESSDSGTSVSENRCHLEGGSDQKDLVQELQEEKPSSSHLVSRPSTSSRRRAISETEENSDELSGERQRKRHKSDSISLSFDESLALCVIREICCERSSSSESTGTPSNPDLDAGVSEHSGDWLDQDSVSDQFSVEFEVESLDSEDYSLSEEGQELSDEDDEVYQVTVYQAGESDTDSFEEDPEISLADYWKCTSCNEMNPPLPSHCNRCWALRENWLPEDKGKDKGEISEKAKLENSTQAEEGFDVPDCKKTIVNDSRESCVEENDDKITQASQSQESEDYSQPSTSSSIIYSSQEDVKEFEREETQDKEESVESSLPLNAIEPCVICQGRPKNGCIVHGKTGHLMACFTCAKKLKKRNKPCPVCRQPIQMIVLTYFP

Compound | IC50
Cc1ccc(N2C(=O)c3[nH]nc(C)c3C2c2ccc(Cl)cc2)cc1 (stereo not given) | 1500 nM
Cc1cc(Cl)ccc1C1c2c(C(C)C)n[nH]c2C(=O)N1c1cc(Cl)ccc1C (racemic) | 4.2 nM
CC(C)c1n[nH]c2c1C(c1ccc(Cl)cc1)N(c1cccc(Cl)c1)C2=O (racemic) | 32 nM
CC(C)(C)c1n[nH]c2c1C(c1ccc(Cl)cc1)N(c1cccc(Cl)c1)C2=O (racemic) | 18 nM
Cc1n[nH]c2c1C(c1ccc(Cl)cc1)N(c1cccc(Cl)c1)C2=O (racemic) | 350 nM
